Measured values from patent US20070123514A1, “Methods of modulating neurotrophin-mediated activity” (PainCeptor Pharma Corporation, priority 2005, published 2007).

Tests used:
PC12 (TrkA & p75) = test: 125I-NGF binding displacement in PC12 cells; design: species or system rat; conditions: for PC12 (TrkA & p75) Single point (% max binding) Mean: PC12 cells; for blocking of NGF binding (dose-response curve): PC12 cells expressing TrkA and p75, result in words
Procedure: The method for acquiring the PC12 data described in Table 1 is described herein in Example 1. Each experiment was done at least once with an n value of 4 for each data point. (n/a=not acquired)
(§1) All cells were incubated at 37° C. in 5% CO2. PC12 cells were maintained in RPMI-1640 medium supplemented with 10% fetal bovine serum (FBS). A875 human melanoma cells were maintained in DMEM with 10% FBS. HEK 293 cells were stably transfected with human TrkA plasmid (see below) and maintained in DMEM with 10% FBS and G418 (600 μg/mL) for selection.
NGF binding was evaluated using methods familiar to those who are skilled in the art. Briefly, cells expressing one or both NGF receptors (PC12: TrkA+p75; A875: p75 alone; HEK_trkA: TrkA alone) were harvested by replacing the medium with calcium-magnesium free balanced salt (Grey's) solution and incubating at 37° C. for 15 min. For NGF binding, cells were resuspended at a concentration of 2×10^6 cells/mL in HEPES-Krebs-Ringer (HKR) buffer (10 mM HEPES; 125 mM NaCl; 4.8 mM KCl; 1.3 mM CaCl2; 1.2 mM MgSO4; 1.2 mM KH2PO4; 1 mg/ml BSA; 1 mg/ml glucose; pH 7.4) and exposed to ^125I-NGF (˜0.1 nM) in the presence or absence of varying concentrations of the compound. Non-specific binding was determined for reference by incubating ^125I-NGF with an excess of non-radioactive NGF in the abence of compound. Following a two-hour incubation period at 4° C., ^125I-NGF bound to the cells was quantified in a gamma radiation counter following separation from unbound NGF by filtration or centrifugation through glycerol (10% in HKR). Inhibition of binding was calculated as a percent of the specific binding (calculated as the differential between ^125I-NGF binding in the absence and presence of an excess of non-radioactive NGF without compound). Dose-response inhibition curves were typically generated with seven concentrations of a given compound, with three replicates for each concentration. For most compounds, multiple dose-response curves were generated.
The IC50 data shown in Table 1 were acquired using the procedure described herein using PC12 cells.

[1] = test system: human TrkA (HEK_trkA: TrkA alone); test: 125I-NGF binding displacement in HEK_trkA cells; conditions: result in words
Procedure: as §1
Expression of human TrkA in HEK cells was achieved by transfecting the cells with the TrkA expression vector using Lipofectamine (Invitrogen) reagent. HEK cells were plated in 100 mm Petri dishes at a concentration of 10^6 cells per dish. The next day, a solution of DNA diluted in 1 mL OptiMEM (Invitrogen) per dish was prepared and incubated for 15 min at room temperature. […]
NGF binding was evaluated using methods familiar to those who are skilled in the art. […] Non-specific binding was determined for reference by incubating ^125I-NGF with an excess of non-radioactive NGF in the abence of compound. Following a two-hour incubation period at 4° C., ^125I-NGF bound to the cells was quantified in a gamma radiation counter following separation from unbound NGF by filtration or centrifugation through glycerol (10% in HKR). Inhibition of binding was calculated as a percent of the specific binding (calculated as the differential between ^125I-NGF binding in the absence and presence of an excess of non-radioactive NGF without compound). […]

O=C(O)c1ccc(Cl)c(N2C(=O)c3cccc4c(C(=O)c5ccccc5)ccc(c34)C2=O)c1 [Compound 98, 3-(6-Benzoyl-1,3-dioxo-1H,3H-benzo[de]isoquinolin-2-yl)-4-chloro-benzoic acid]
PC12 (TrkA & p75) Single point (% max binding) Mean (PC12 (TrkA & p75); compound concentration 25 μM): *** (0 > *** > 30)

CC(=O)Nc1cc2c3c(cc(NC(C)=O)cc3c1)C(=O)N(c1cccc(C(=O)O)c1)C2=O [Compound 94, 3-(5,8-Bis-acetylamino-1,3-dioxo-1H,3H-benzo[de]isoquinolin-2-yl)-benzoic acid]
blocking of NGF binding (dose-response curve) (PC12 (TrkA & p75)): effectively blocks NGF binding | blocking of NGF binding to TrkA (dose-response curve) [1]: effectively blocks NGF binding to TrkA

O=C1c2cccc3cc([N+](=O)[O-])cc(c23)C(=O)N1c1ccc(S(=O)(=O)O)cc1 [Compound 71, 4-(5-Nitro-1,3-dioxo-1H,3H-benzo[de]isoquinolin-2-yl)-benzenesulfonic acid]
blocking of NGF binding (dose-response curve) (PC12 (TrkA & p75)): effectively block NGF binding

CC(=O)Nc1ccc(C(=O)O)cc1N1C(=O)c2cccc3cc([N+](=O)[O-])cc(c23)C1=O [Compound 110, 4-Acetylamino-3-(5-nitro-1,3-dioxo-1H,3H-benzo[de]isoquinolin-2-yl)-benzoic acid]
PC12 (TrkA & p75) Single point (% max binding) Mean (PC12 (TrkA & p75); compound concentration 25 μM): ** (30 > ** > 50)

O=C(O)c1cc(Cl)cc(N2C(=O)c3cccc4cc([N+](=O)[O-])cc(c34)C2=O)c1Cl [Compound 51, 2,5-Dichloro-3-(5-nitro-1,3-dioxo-1H,3H-benzo[de]isoquinolin-2-yl)-benzoic acid]
PC12 (TrkA & p75) Single point (% max binding) Mean (PC12 (TrkA & p75); compound concentration 50 μM): * (* > 50)

O=C(O)c1ccc(Cl)c(N2C(=O)c3cc([N+](=O)[O-])cc4cc([N+](=O)[O-])cc(c34)C2=O)c1 [Compound 7, 4-Chloro-3-(5,8-dinitro-1,3-dioxo-1H,3H-benzol[de]isoquinolin-2-yl)-benzoic acid]
blocking of NGF binding (dose-response curve) (PC12 (TrkA & p75)): effectively blocks NGF binding

CCOC(=O)c1cccc(N2C(=O)c3cccc4cccc2c34)c1 [Compound 105, 3-(2-Oxo-2H-benzo[cd]indol-1-yl)-benzoic acid ethyl ester]
PC12 (TrkA & p75) Single point (% max binding) Mean (PC12 (TrkA & p75); compound concentration 25 μM): * (* > 50)

CCOC(=O)c1cccc(N2C(=O)c3cccc4c([N+](=O)[O-])ccc2c34)c1 [Compound 106, 3-(6-Nitro-2-oxo-2H-benzo[cd]indol-1-yl)-benzoic acid ethyl ester]
PC12 (TrkA & p75) Single point (% max binding) Mean (PC12 (TrkA & p75); compound concentration 25 μM): * (* > 50)

Nc1cc2c3c(cc(Br)cc3c1)C(=O)N(c1cc(C(=O)O)ccc1Cl)C2=O [Compound 56, 3-(5-Amino-8-bromo-1,3-dioxo-1H,3H-benzo[de]isoquinolin-2-yl)-4-chloro-benzoic acid]
PC12 (TrkA & p75) Single point (% max binding) Mean (PC12 (TrkA & p75); compound concentration 50 μM): * (* > 50)

Nc1cc2c3c(cc(N)cc3c1)C(=O)N(c1ccc(S(=O)(=O)O)cc1)C2=O [Compound 118, 4-(5,8-Diamino-1,3-dioxo-1H,3H-benzo[de]isoquinolin-2-yl)-benzenesulfonic acid]
PC12 (TrkA & p75) Single point (% max binding) Mean (PC12 (TrkA & p75); compound concentration 50 μM): ** (30 > ** > 50)

CCOC(=O)c1cc(N2C(=O)c3cccc4c([N+](=O)[O-])ccc2c34)ccc1Cl [Compound 108, 2-Chloro-5-(6-nitro-2-oxo-2H-benzo[cd]indol-1-yl)-benzoic acid ethyl ester]
PC12 (TrkA & p75) Single point (% max binding) Mean (PC12 (TrkA & p75); compound concentration 25 μM): * (* > 50)

CC(=O)Nc1cc2c3c(cc(NC(C)=O)cc3c1)C(=O)N(c1ccc(S(=O)(=O)O)cc1)C2=O [Compound 119, 4-(5,8-Bis-acetylamino-1,3-dioxo-1H,3H-benzol[de]isoquinolin-2-yl)-benzenesulfonic acid]
PC12 (TrkA & p75) Single point (% max binding) Mean (PC12 (TrkA & p75); concentration cell printed as '═'): ** (30 > ** > 50)

CC(=O)Nc1cc2c3c(cc(Br)cc3c1)C(=O)N(c1cc(C(=O)O)ccc1Cl)C2=O [Compound 57, 3-(5-Acetylamino-8-bromo-1,3-dioxo-1H,3H-benzo[de]isoquinolin-2-yl)-4-chloro-benzoic acid]
PC12 (TrkA & p75) Single point (% max binding) Mean (PC12 (TrkA & p75); compound concentration 50 μM): ** (30 > ** > 50)

O=C(O)c1ccc(Cl)c(N2C(=O)c3cccc4c(C(=O)O)ccc(c34)C2=O)c1 [Compound 99, 2-(5-Carboxy-2-chloro-phenyl)-1,3-dioxo-2,3-dihydro-1H-benzo[de]isoquinoline-6-carboxylic acid]
PC12 (TrkA & p75) Single point (% max binding) Mean (PC12 (TrkA & p75); compound concentration 25 μM): * (* > 50)

O=C(O)c1cccc(N2C(=O)c3cccc4cccc2c34)c1 [Compound 107, 3-(2-Oxo-2H-benzo[cd]indol-1-yl)-benzoic acid]
PC12 (TrkA & p75) Single point (% max binding) Mean (PC12 (TrkA & p75); compound concentration 25 μM): ** (30 > ** > 50)

O=C(O)c1ccc(Cl)c(N2C(=O)c3cccc4c(Cl)ccc(c34)C2=O)c1 [Compound 111, 4-Chloro-3-(6-chioro-1,3-dioxo-1H,3H-benzo[de]isoquinolin-2-yl)-benzoic acid]
PC12 (TrkA & p75) Single point (% max binding) Mean (PC12 (TrkA & p75); compound concentration 25 μM): ** (30 > ** > 50)

O=C(O)c1ccc(Cl)c(N2C(=O)c3cc(Br)cc4cc([N+](=O)[O-])cc(c34)C2=O)c1 [Compound 53, 3-(5-Bromo-8-nitro-1,3-dioxo-1H,3H-benzo[de]isoquinolin-2-yl)-4-chloro-benzoic acid]
PC12 (TrkA & p75) Single point (% max binding) Mean (PC12 (TrkA & p75); compound concentration 50 μM): * (* > 50)
